Data as given in US20260218439A1, “METHOD OF TREATING OR REDUCING CANCER COMPRISING ADMINISTERING A COMPOUND 3-(BENZO[D][1,3]DIOXOL-5-YL)-7-(1-HYDROXYPROPAN-2-YL)-1-(1H-INDOLE-3-YL)-6,7-DIHYDRO-3H-OXAZOLE[3,4-A]PYRAZINE-5,8-DIONE” (BIOLAB SANUS FARMACEUTICA LTDA, priority 2019, published 2026).

Legend:
PDE5A1 = molecular target: T1, PDE5A1 (Homo sapiens, UniProt O76074); test: PDE5A1 fluorescence polarization enzyme assay (BPS Bioscience kit 60350); type: biochemical
T1 construct: purchased BPS Bioscience 60350
Experimental: The evaluation of the compound is studied using BPS Bioscience enzyme assay kit (catalogue 60350). The PDE5A1 Assay kit is designed for identification of PDE5A1 inhibitors using fluorescence polarization. The assay is based on the binding of a fluorescent nucleotide monophosphate generated by PDE5A1 enzyme to the binding agent.
In this methodology only two simple steps on a microtiter plate are required for PDE5A1 reactions. First, the fluorescently labeled cGMP is incubated with PDE5A1 for 1 hour. Second, the binding agent is added to the reaction mixture to produce a change in fluorescent polarization that can then be measured using a fluorescence reader equipped for the measurement of fluorescence polarization.
For the assay the storage reagent FAM-Cyclic-3′,5′-GMP (20 μM) is diluted with PDE assay buffer to achieve the solution with a […]; the PDE5A1 enzyme is thawed and diluted with the PDE buffer obtaining a PDE5A1 solution at 10 μg/mL.
The assay compounds are diluted with DMSO 100% (v/v) at a concentration of 1000 μM and subsequently diluted in a Sodium chloride 0.9% solution to obtain a curve of concentrations of interest for the assay. The compounds are diluted in concentrations of: 10 nM, 30 nM, 50 nM, 100 nM, 300 nM, 500 nM, 1 μM, 3 μM, 5 μM (DMSO 10% v/v).
The study is comprised of groups: (i) substrate control; (ii) positive control (KIT); (iii) samples in several concentrations; (iv) tadalafil (comparative control). Each parameter (group) is triple labeled.
• For the 4 groups there is added, to each microplate well, […] of the FAM-Cyclic-3′ reagent, 5′-GMP (200 μM). • To the substrate control group there is added, to each well, […] of vehicle (DMSO 10% v/v) and […] PDE Buffer. • To the positive control group there is added, to each well, […] of vehicle (DMSO 10% v/v). • To the tadalafil group: there is added 5 mL of the solution in the concentrations of interest. • To the test group there is added 5 mL of the sample solution (test compound)
OBSERVATION: the parameters tested are in triplicate.
To begin the reaction, add […] of the PDE5A1 enzyme (diluted as described above) to the microplate wells designated as Positive Control and Samples (test and tadalafil), and incubate the microplate, for 1 hour, at a temperature of 25° C.
After the incubation period, the reaction is interrupted by the addition, in all the wells, of […] of the binding agent solution and the microplate is incubated for 30 minutes, under light stirring, at room temperature. The reading of the microplate is carried out in Polarized Fluorescence (475-495 nm—excitation and 518-538 nm—emission detection) 500 nanoseconds integration time.

[1] = system: PC3-human prostate cancer cells; test: Cell proliferation inhibition (CYQuant intracellular DNA), PC3; type: cell-based; conditions: for % Cell Proliferation Inhibition (intracellular DNA) PC-3 (average ± E.P.M.): 72 hours
Experimental: (§1) For the execution of the assay, the compounds are diluted in DMSO 100% (v/v) at a concentration of 1000 μM and subsequently diluted in a Sodium Chloride solution 0.9% to obtain the storage solutions of interest for use in the assays. The final concentration of interest will be directly diluted in the cell culture medium. For the assay there are used the following tumor cell lineages: PC3-human prostate cancer cells; LNCAP-human prostate cancer cells; DU145-human prostate cancer; MNK45-human gastric cancer and RT4-human bladder cancer cells. The tumor cell lineages are maintained in culture according to standard procedures established by the Cell Bank of Rio de Janeiro (lineage place of origin) Procedure: • For the assay, the tumor cells are seeded in the concentration of 10.000 cells per well (final volume of the reaction of […]), the plate is incubated for 8 hours, for the cells to adhere to the wall of the wells. After this period, the plate is divided in groups: • (a) test group: […] of the samples were added (test compound) in the concentrations of interest; • (b) positive control group: […] of culture medium were added (100% of cell proliferation); • (c) negative control group: 200 mL of culture medium and […] of the vehicle used were added to dilute the compounds (without cells—zero proliferation); • (d) control group: […] were added of the vehicle used to dilute the compounds. This group is important to evaluate whether the vehicle used interferes in the cell proliferation. OBSERVATION: the treatment with the concentrations of samples (test compounds) and of the controls are carried out in triplicate. • Incubate the plate for 72 hours in a CO2 kiln at 37° C. • After the incubation period, add […] of the solution with DNA marker from the CYQuant Kit and incubate the plate, for 60 minutes, in a CO2 incubator at 37° C. The fluorescence intensity is determined using a fluorescence microplate reader with 485 nm excitation and 530 nm emission detection. The results obtained were normalized relative to the positive control group (100% proliferation). For the compounds there are prepared the storage solutions in the concentrations of: 100 nM, 1 μM, 3 μM, 5 μM, 10 μM and 30 μM (DMSO 10% v/v). While the final concentrations in the test are of: 10 nM, 100 nM, 300 nM, 500 nM, 1000 nM and 3000 nM (in DMSO 1% v/v).

[2] = system: LNCAP-human prostate cancer cells; test: Cell proliferation inhibition (CYQuant intracellular DNA), LNCAP; type: cell-based; conditions: for % Cell Proliferation Inhibition (intracellular DNA) LNCAP (average ± E.P.M.): 72 hours
Experimental: as §1

[3] = system: DU145-human prostate cancer; test: Cell proliferation inhibition (CYQuant intracellular DNA), DU145; type: cell-based; conditions: for % Cell Proliferation Inhibition (intracellular DNA) DU145 (average ± E.P.M.): 72 hours
Experimental: as §1

[4] = system: MNK45-human gastric cancer; test: Cell proliferation inhibition (CYQuant intracellular DNA), MNK45; type: cell-based; conditions: 72 hours
Experimental: as §1

[5] = system: RT4-human bladder cancer cells; test: Cell proliferation inhibition (CYQuant intracellular DNA), RT4; type: cell-based; conditions: for % Cell Proliferation Inhibition (intracellular DNA) RT4 (average ± E.P.M.): 72 hours
Experimental: as §1

% of Inhibition (PDE5A1) (PDE5A1; compound 10 nM): 0%
% of Inhibition (PDE5A1) (PDE5A1; compound 30 nM): 0%
% of Inhibition (PDE5A1) (PDE5A1; compound 50 nM): 0%
% of Inhibition (PDE5A1) (PDE5A1; compound 100 nM): 0%
% of Inhibition (PDE5A1) (PDE5A1; compound 300 nM): 15 ± 3%
% of Inhibition (PDE5A1) (PDE5A1; compound 500 nM): 25 ± 3%
% of Inhibition (PDE5A1) (PDE5A1; compound 1000 nM): 55 ± 4%
% of Inhibition (PDE5A1) (PDE5A1; compound 3000 nM): 65 ± 2%
% of Inhibition (PDE5A1) (PDE5A1; compound 5000 nM): 78 ± 1%
concentration as from which PDE5 inhibition was observed (PDE5A1; tested 10 nM to 5000 nM): ≥ 300 nM
Substance: (R)-3-(benzo [d][1, 3]dioxol-5-yl)-7-((R)-1-hydroxypropan-2-yl)-1-(1H-indole-3-yl)-6, 7-dihydro-3H-oxazole [3, 4-a]pyrazine-5, 8-dione with (S)-3-(benzo [d][1,3]dioxol-5-yl)-7-((R)-1-hydroxypropan-2-yl)-1-(1H-indole-3-yl)-6, 7-dihydro-3H-oxazole [3, 4-a]pyrazine-5, 8-dione [BL-380]
PDE5 inhibition (result in words) (PDE5A1; concentration series): capable of inhibiting the PDE5 in a dose-dependent manner
antiproliferative effect (result in words) ([1]; PC3 prostate cancer tumor lineage): presented antiproliferative effect
% Cell Proliferation Inhibition (intracellular DNA) PC-3 (average ± E.P.M.) ([1]; PC-3, 10 nM): 39 ± 6%
% Cell Proliferation Inhibition (intracellular DNA) PC-3 (average ± E.P.M.) ([1]; PC-3, 100 nM): 25 ± 5%
% Cell Proliferation Inhibition (intracellular DNA) PC-3 (average ± E.P.M.) ([1]; PC-3, 300 nM): 28 ± 2%
% Cell Proliferation Inhibition (intracellular DNA) PC-3 (average ± E.P.M.) ([1]; PC-3, 500 nM): 48 ± 6%
% Cell Proliferation Inhibition (intracellular DNA) PC-3 (average ± E.P.M.) ([1]; PC-3, 1000 nM): 40 ± 3%
% Cell Proliferation Inhibition (intracellular DNA) PC-3 (average ± E.P.M.) ([1]; PC-3, 3000 nM): 54 ± 4%
antiproliferative effect (result in words) ([2]; LNCAP prostate cancer tumor lineage): presented antiproliferative effect
% Cell Proliferation Inhibition (intracellular DNA) LNCAP (average ± E.P.M.) ([2]; 10 nM): 26 ± 10%
% Cell Proliferation Inhibition (intracellular DNA) LNCAP (average ± E.P.M.) ([2]; 100 nM): 12 ± 3%
% Cell Proliferation Inhibition (intracellular DNA) LNCAP (average ± E.P.M.) ([2]; 300 nM): 29 ± 6%
% Cell Proliferation Inhibition (intracellular DNA) LNCAP (average ± E.P.M.) ([2]; 500 nM): 27 ± 2%
% Cell Proliferation Inhibition (intracellular DNA) LNCAP (average ± E.P.M.) ([2]; 1000 nM): 37 ± 2%
% Cell Proliferation Inhibition (intracellular DNA) LNCAP (average ± E.P.M.) ([2]; 3000 nM): 48 ± 6%
% Cell Proliferation Inhibition (intracellular DNA) DU145 (average ± E.P.M.) ([3]; DU145, 100 nM): 12 ± 4%
% Cell Proliferation Inhibition (intracellular DNA) DU145 (average ± E.P.M.) ([3]; DU145, 300 nM): 10 ± 5%
% Cell Proliferation Inhibition (intracellular DNA) DU145 (average ± E.P.M.) ([3]; DU145, 500 nM): 12 ± 2%
% Cell Proliferation Inhibition (intracellular DNA) DU145 (average ± E.P.M.) ([3]; DU145, 1000 nM): 10 ± 3%
% Cell Proliferation Inhibition (intracellular DNA) DU145 (average ± E.P.M.) ([3]; DU145, 3000 nM): 31 ± 5%
antiproliferative effect (result in words) ([3]; DU145 prostate cancer tumor lineage): presented antiproliferative effect
% Cell Proliferation Inhibition (intracellular DNA) MNK45 (average ± E.P.M.) ([4]; MNK45, 100 nM): 7 ± 2%
% Cell Proliferation Inhibition (intracellular DNA) MNK45 (average ± E.P.M.) ([4]; MNK45, 300 nM): 0%
% Cell Proliferation Inhibition (intracellular DNA) MNK45 (average ± E.P.M.) ([4]; MNK45, 500 nM): 0%
% Cell Proliferation Inhibition (intracellular DNA) MNK45 (average ± E.P.M.) ([4]; MNK45, 1000 nM): 0%
% Cell Proliferation Inhibition (intracellular DNA) MNK45 (average ± E.P.M.) ([4]; MNK45, 3000 nM): 16 ± 5%
% Cell Proliferation Inhibition (intracellular DNA) RT4 (average ± E.P.M.) ([5]; RT4, 100 nM): 8 ± 6%
% Cell Proliferation Inhibition (intracellular DNA) RT4 (average ± E.P.M.) ([5]; RT4, 300 nM): 5 ± 5%
% Cell Proliferation Inhibition (intracellular DNA) RT4 (average ± E.P.M.) ([5]; RT4, 500 nM): 3 ± 5%
% Cell Proliferation Inhibition (intracellular DNA) RT4 (average ± E.P.M.) ([5]; RT4, 1000 nM): 3 ± 1%
% Cell Proliferation Inhibition (intracellular DNA) RT4 (average ± E.P.M.) ([5]; RT4, 3000 nM): 58 ± 4%
antiproliferative effect (result in words) ([5]; RT4 bladder cancer tumor lineage): presented antiproliferative effect
